Results published in ChEMBL document CHEMBL1157041, “Support vector machines: development of QSAR models for predicting anti-HIV-1 activity of TIBO derivatives” (Eur J Med Chem, 2010).

test system: Human immunodeficiency virus 1; assay: Antiviral activity against HIV1 infected in human MT4 cells assessed as protection against virus-induced cytopathic effect; format: functional, organism-based; conditions: Human immunodeficiency virus 1, MT4

IC50 [µM] | Compound
37.2 | C=C(CC)CN1Cc2cccc3[nH]c(=O)n(c23)C[C@@H]1C
43.7 | C[C@H]1Cn2c(=O)[nH]c3cccc(c32)CN1CC1CC1
851 | COC(=O)CN1Cc2cccc3[nH]c(=O)n(c23)C[C@@H]1C
57.5 | C/C=C/CN1Cc2cccc3[nH]c(=O)n(c23)C[C@@H]1C
1.15 | CC(C)=CCN1[C@H](C)Cn2c(=S)[nH]c3cccc(c32)[C@@H]1C
89.1 | CCCN1Cc2cccc3[nH]c(=O)n(c23)C[C@@H]1C
70.8 | C=CC(=C)CN1Cc2cccc3[nH]c(=O)n(c23)C[C@@H]1C
100 | CCCCN1Cc2cccc3[nH]c(=O)n(c23)C[C@@H]1C
0.0251 | CC(C)=CCN1Cc2cc(Cl)c(Cl)c3nc(S)n(c23)C[C@@H]1C
56.2 | CC(C)=CCN1C(C)c2cccc3[nH]c(=O)n(c23)[C@@H](C)[C@H]1C (relative stereo)
28.8 | C/C=C(\C)CN1Cc2cccc3[nH]c(=O)n(c23)C[C@@H]1C
60.3 | CCCN1Cc2cccc3[nH]c(=O)n(c23)CC1C (stereo not given)
1.66 | CCCN1Cc2cccc3[nH]c(=S)n(c23)CC1C (stereo not given)
70.8 | C=CCN1Cc2cccc3[nH]c(=O)n(c23)C[C@@H]1C
123 | C[C@H]1Cn2c(=O)[nH]c3cccc(c32)CN1C/C=C\c1ccccc1
13.5 | CC1c2cccc3[nH]c(=S)n(c23)[C@@H](C)[C@H](C)N1CC1CC1 (stereo not given in full)
50.1 | C=CCCN1Cc2cccc3[nH]c(=O)n(c23)C[C@@H]1C
34.7 | C/C=C\CN1Cc2cccc3[nH]c(=O)n(c23)C[C@@H]1C
2.24 | CC(C)=CCN1C(C)c2cccc3[nH]c(=S)n(c23)[C@@H](C)[C@H]1C (relative stereo)
61.7 | C=C(Br)CN1Cc2cccc3[nH]c(=O)n(c23)C[C@@H]1C
107 | C[C@H]1Cn2c(=O)[nH]c3cccc(c32)CN1Cc1ccco1
31.6 | C=C(C)CN1Cc2cccc3[nH]c(=O)n(c23)C(C)C1 (stereo not given)
34.7 | C=C(C)CN1Cc2cccc3[nH]c(=O)n(c23)CC1C (stereo not given)
46.8 | C=C(C)CN1Cc2cccc3[nH]c(=O)n(c23)C[C@@H]1C
2.19 | C[C@@H]1CN(CC2CC2)Cc2cc(Cl)cc3[nH]c(=S)n1c23
0.0417 | CC(C)=CCN1[C@@H](C)Cn2c(=S)[nH]c3cccc(c32)[C@@H]1C (relative stereo)
575 | C#CCN1Cc2cccc3[nH]c(=O)n(c23)C[C@@H]1C
12.6 | CC(C)=CCN1Cc2cccc3nc(O)n(c23)C[C@@H]1C

same assay, conditions: mt4

pIC50 | Compound
7.36 | CC(C)=CCN1Cc2cccc3[nH]c(=S)n(c23)C[C@@H]1C (stereo in doubt; 1)
7.01 | CC(C)=CCN1Cc2cccc3[nH]c(=S)n(c23)C[C@@H]1C (stereo in doubt; 81)
